Measurements: patent US6960566B1, “Compositions and methods for treatment of cancer” (The Wister Institute of Anatomy and Biology, priority 1998, dated 2005)
Entries after “also recorded” stand apart in the source; their conditions may differ.

Experiments:
BR55-2 [1] = assay: Competition of peptide with LeY for BR55-2 binding
BR55-2 [2] = assay: ELISA, binding of MAb BR55-2 to monovalent peptide; details: series of ELISA assays
Excerpt: The Trp residue occupies a volume associated with the Fuca 1,3 moiety, and the Leu residue occupies the volume of the β Gal moiety and has the hydrophobic interaction of β Gal. The Tyr residue occupies a position not associated with LeY binding to B3. The computer modeling disclosed that the low energy binding mode conformation adopts a turn region similar to that observed for the YPY motif in binding to ConA [Kaur et al., 1997, J. Biol. Chem. 272:5539-5543]. This conformation lends itself to the Tyr residue of the peptide to potentially interact with several residues in CDR2 of the heavy chain of B3 that include Asp H53, Ser H52, Ser H55, or Ser H56.

[3] = tested on: neutrophil influx into chemically irritated peritoneum; assay: Neutrophil recruitment in Zymosan-induced peritonitis (acute inflammation model in vivo); details: mice, Zymosan i.p.
Procedure: The accumulation of neutrophils is a characteristic feature of acute and chronic inflammatory disease, and early steps in the recruitment of these cells to the site of inflammation depends upon E-selectin-mediated interaction. Thus, inhibition of neutrophil recruitment in vivo is an important test of the ability of potential therapeutic agents to inhibit E-selectin-mediated events. […] Because SA-Le^a binds to E-selectin, the adhesion-blocking ability of an SA-Le^a peptido-mimetic was measured in a neutrophil-recruitment in vivo model of acute inflammation.
The bioactivity of the 12-mer peptide SEQ ID NO: 1 which mimics the SA-Le^a carbohydrate structure was determined by administering Zymosan™ intraperitoneally (i.p.) into mice [see, e.g., Martens et al. 1995, J. Biol. Chem. 270:21129-21136; Rao et al. 1994, J. Biol. Chem. 269:19663-19666], followed three hours later by an intravenous (i.v.) injection of peptide SEQ ID NO: 1 (1 mg). Neutrophils were harvested and counted one hour later.
Derm. 78:206-209]. […] The reduction in enzyme activity is apparently due to reduction in neutrophil recruitment in mice treated with peptide mimicking E-selectin ligand SA-Le^a. This peptide inhibits E-selectin function in vivo.

MAb NS19-9 [4] = assay: ELISA, direct binding of MAb NS19-9 to peptide
MAb NS19-9 [5] = assay: Competition ELISA: peptide inhibition of MAb NS19-9 binding to solid phase SA-Le^a-PAA
Procedure: The peptide competition/inhibition assays referred to throughout the following examples are performed as follows: Test peptides at concentrations ranging from 10 nM to 1 mM were preincubated with 100 μl of the MAb NS19-9 (5 μg/ml) diluted in 10% […] free horse serum/PBS at room temperature. Fifty μl of preincubated inhibition complex antibody-peptide is added to each well of 96-well plate and incubated at 30-37° C. for 1 hour. After 1 hour of incubation, MAb/peptide complex mixtures were transferred to wells precoated with a constant amount of neoglycoprotein containing coupled multivalent carbohydrate determinant (SA-Le^a-polyacrylamide matrix (SA-LeX-PAA or LeY-PAA) (5 μg/well) and allowed to bind for 1 hour followed by blocking with 10% γ-globulin-free horse serum for 2 hours at room temperature. Wells were washed with 100 μl PBS four times. Goat anti-mouse immunoglobulin G conjugated to horse radish peroxidase (Boehringer-Manheim, Indianapolis, Ind.) was diluted 1000-fold with 10% γ-globulin free horse serum/PBS and 100 μl was added in each well and incubated at 30-37° C. for 1 hour and washed with 100 μl PBS five times. […] The developed blue color was read at 450 nm after stopping the reaction with 100 μl 1M phosphoric acid. Fifty % inhibitory concentration (IC50) was calculated by non-linear least-squares regression to a four-parameter logistic equation. […]

MAb BR15-6A = assay: Inhibition of MAb BR15-6A binding to LeY carbohydrate
Procedure: The peptide competition/inhibition assays referred to throughout the following examples are performed as follows: Test peptides at concentrations ranging from 10 nM to 1 mM were preincubated with 100 μl of the MAb NS19-9 (5 μg/ml) diluted in 10% […] free horse serum/PBS at room temperature. Fifty μl of preincubated inhibition complex antibody-peptide is added to each well of 96-well plate and incubated at 30-37° C. for 1 hour. […] The developed blue color was read at 450 nm after stopping the reaction with 100 μl 1M phosphoric acid. Fifty % inhibitory concentration (IC50) was calculated by non-linear least-squares regression to a four-parameter logistic equation. […]
Peptide SEQ ID NO: 99 from the family of LeY-mimicking peptides was selected because it contained a consensus motif which appeared in multiple bacterial isolates after five rounds of panning with the BR15-6A MAb. This peptide was chemically synthesized and its binding to BR15-6A MAb was evaluated. […] This peptide is further evaluated in competition assays with native LeY containing neoglycoprotein and LeY-specific MAbs BR15-6A and BR55-2.

BR15-6A MAb = assay: ELISA, binding of MAb BR15-6A to solid phase coated peptide; details: solid phase coated peptide at 1 nM to 1 mM
Procedure: Peptide SEQ ID NO: 99 from the family of LeY-mimicking peptides was selected because it contained a consensus motif which appeared in multiple bacterial isolates after five rounds of panning with the BR15-6A MAb. This peptide was chemically synthesized and its binding to BR15-6A MAb was evaluated. […] It likely represents a conformational mimic of the LeY structure. This peptide is further evaluated in competition assays with native LeY containing neoglycoprotein and LeY-specific MAbs BR15-6A and BR55-2.

MAb NS19-9 [6] = assay: competition ELISA; peptide preincubated with MAb NS19-9, free MAb binding to SA-Le^a-PAA

With “FSLLW (peptido-mimetic of a Lewis antigen) [SEQ ID NO: 114]” as the molecule, how does the “competition with LeY for BR55-2 binding (in words)” value (BR55-2 [1]) read?
The value was “competes with LeY for BR55-2 binding”.

With “APWLYGPA (peptido-mimetic of a Lewis antigen) [SEQ ID NO: 121]” as the molecule, how does the “binding of BR55-2 to monovalent peptide (in words)” value (BR55-2 [2]) read?
The value was “does not bind”.

How did the “myeloperoxidase activity in collected cells (in words)” value ([3]; 1 mg peptide i.v.) turn out when DLWDWVVGKPAG [SEQ ID NO: 1] was run?
Its value is “Significant reduction of enzymatic activity”.

And the “number of neutrophils in peritoneal lavage fluids (in words)” value ([3]; 1 mg peptide i.v. three hours later, harvest one hour later)?
The value was “reduced the number of neutrophils; also recorded: reduction of neutrophil influx; also recorded: partially inhibit neutrophil recruitment”.

And the “binding of MAb NS19-9 to peptide (in words)” value (MAb NS19-9 [4])?
Its value is “dose-dependent binding”.

What about the “blocking of MAb NS19-9 binding to SA-Le^a-PAA (in words)” value (MAb NS19-9 [5]) of the same molecule?
Its value is “blocked the binding of MAb NS 19-9”.

What about the IC50 (MAb NS19-9 [5]; MAb NS19-9 5 μg/ml, solid phase SA-Le^a-PAA, read-out: IC50, blocking of MAb NS19-9 binding to SA-Le^a-PAA) of the same molecule?
The IC50 was 700 µM.

Which results are given for “DEVRPDLISTEE (peptido-mimetic of a Lewis antigen) [SEQ ID NO: 99]”?
inhibition of MAb BR15-6A binding to LeY (in words) (MAb BR15-6A): inhibit MAb BR15-6A binding; binding of MAb BR15-6A to peptide (in words) (BR15-6A MAb): Dose-dependent binding

How did the IC50 (MAb NS19-9 [6]) turn out when DLWDWVVGKPAG [peptide …] was run?
Its IC50 is 700 µM.
